According to US9115150B2, “Camptothecin compound containing stable 7-membered lactone ring, preparation method and use” (EAST CHINA NORMAL UNIVERSITY, priority 2012, dated 2015):

system: HCT-116 cells; assay: Anti-tumor (cytotoxic) activity assay, SRB method, HCT-116; assay type: cell-based; conditions: Homo sapiens, HCT-116 tumor cells, 72 h at 37° C., read-out: growth inhibition activity on HCT-116 cells, IC50
Method: (§1) All the cytotoxic activity assays of the compounds were conducted on corresponding tumor cell lines. There were 6000˜10000 tumor cells per 100 μL of culture medium, and they were placed in a 96-well plate (Falcon, Calif.). The tumor cells were divided into 3 parts, and treated with drugs having gradient concentrations. The tumor cells were cultivated for 72 h at 37° C., and assayed using SRB method. The concentration that 50% of the growth of the tumor cells growth was inhibited, i.e., IC50, was calculated from dosage-activity curves.

| Structure (SMILES) | IC50 [nM] |
| --- | --- |
| CC[C@]1(O)c2cc3n(c(=O)c2COC(=O)[C@@H]1OC(C)=O)Cc1cc2ccccc2nc1-3 [Ysb-1, (20S,20aR)-20a-acetoxyhomocamptothecin] | 14.2 ± 6.1 |
| CC[C@]1(O)c2cc3n(c(=O)c2COC(=O)[C@@H]1OC(C)=O)Cc1cc2cc4c(cc2nc1-3)OCCO4 [Ysb-7] | 4.9 ± 4.1 |
| CC[C@]1(O)c2cc3n(c(=O)c2COC(=O)[C@@H]1O)Cc1cc2cc(OC)ccc2nc1-3 [Ysb-4, (20S,20aR)-10-methoxy-20a-hydroxylhomocamptothecin] | 10.6 ± 6.2 |
| CC[C@@]1(O)C(=O)OCc2c1cc1n(c2=O)Cc2cc3cc(O)ccc3nc2-1 [Compound 10-HCPT, 10-hydroxylcamptothecin, reference compound] | 31.2 ± 8.2 |
| CC[C@]1(O)c2cc3n(c(=O)c2COC(=O)[C@@H]1O)Cc1cc2ccccc2nc1-3 [Ysb-2, (20S,20aR)-20a-hydroxylhomocamptothecin] | 49.3 ± 15 |
| CC[C@]1(O)c2cc3n(c(=O)c2COC(=O)[C@@H]1O)Cc1cc2cc4c(cc2nc1-3)OCCO4 [Ysb-8] | 3.4 ± 1.2 |
| CCc1c2c(nc3ccc(O)cc13)-c1cc3c(c(=O)n1C2)COC(=O)[C@H](O)[C@]3(O)CC [Ysb-10, (20S,20aR)-10-hydroxyl-7-ethyl-20a-hydroxyl homocamptothecin] | 366 ± 213 |
| CC[C@]1(O)c2cc3n(c(=O)c2COC(=O)[C@@H]1OC(C)=O)Cc1cc2cc(OC)ccc2nc1-3 [Ysb-3, (20S,20aR)-10-methoxy-20a-acetoxyhomocamptothecin] | 4.4 ± 1 |
| CC[C@@]1(O)C(=O)OCc2c1cc1n(c2=O)Cc2cc3ccccc3nc2-1 [CPT, Camptothecin] | 22.9 ± 12 |
| CCc1c2c(nc3ccc(O)cc13)-c1cc3c(c(=O)n1C2)COC(=O)[C@H](OC(C)=O)[C@]3(O)CC [Ysb-9, (20S,20aR)-10-hydroxyl-7-ethyl-20a-acetoxy homocamptothecin] | 133 ± 18.7 |
| CCc1c2c(nc3ccc(O)cc13)-c1cc3c(c(=O)n1C2)COC(=O)[C@]3(O)CC [SN-38, reference compound] | 40.8 ± 5.8 |
| CC[C@]1(O)c2cc3n(c(=O)c2COC(=O)[C@@H]1OC(C)=O)Cc1cc2cc4c(cc2nc1-3)OCO4 [Ysb-5] | 2.1 ± 0.3 |
| CC[C@]1(O)c2cc3n(c(=O)c2COC(=O)[C@@H]1O)Cc1cc2cc4c(cc2nc1-3)OCO4 [Ysb-6, (20S,20aR)-9,10-(1,3-dioxolane)-20a-hydroxylhomocamptothecin] | 3.1 ± 0.7 |

system: A549 cells; assay: Anti-tumor (cytotoxic) activity assay, SRB method, A549; assay type: cell-based; conditions: Homo sapiens, 72 h at 37° C., read-out: growth inhibition activity on A549 cells, IC50
Method: as §1

| Structure (SMILES) | IC50 [nM] |
| --- | --- |
| CC[C@]1(O)c2cc3n(c(=O)c2COC(=O)[C@@H]1OC(C)=O)Cc1cc2ccccc2nc1-3 [Ysb-1, (20S,20aR)-20a-acetoxyhomocamptothecin] | 49.2 ± 34.6 |
| CC[C@]1(O)c2cc3n(c(=O)c2COC(=O)[C@@H]1OC(C)=O)Cc1cc2cc4c(cc2nc1-3)OCCO4 [Ysb-7] | 4.6 ± 2.9 |
| CC[C@]1(O)c2cc3n(c(=O)c2COC(=O)[C@@H]1O)Cc1cc2cc(OC)ccc2nc1-3 [Ysb-4, (20S,20aR)-10-methoxy-20a-hydroxylhomocamptothecin] | 4.8 ± 3.6 |
| CC[C@@]1(O)C(=O)OCc2c1cc1n(c2=O)Cc2cc3cc(O)ccc3nc2-1 [Compound 10-HCPT, 10-hydroxylcamptothecin, reference compound] | 33.6 ± 17.8 |
| CC[C@]1(O)c2cc3n(c(=O)c2COC(=O)[C@@H]1O)Cc1cc2ccccc2nc1-3 [Ysb-2, (20S,20aR)-20a-hydroxylhomocamptothecin] | 16.8 ± 4.2 |
| CC[C@]1(O)c2cc3n(c(=O)c2COC(=O)[C@@H]1O)Cc1cc2cc4c(cc2nc1-3)OCCO4 [Ysb-8] | 2.9 ± 1.3 |
| CCc1c2c(nc3ccc(O)cc13)-c1cc3c(c(=O)n1C2)COC(=O)[C@H](O)[C@]3(O)CC [Ysb-10, (20S,20aR)-10-hydroxyl-7-ethyl-20a-hydroxyl homocamptothecin] | 30.3 ± 18.4 |
| CC[C@]1(O)c2cc3n(c(=O)c2COC(=O)[C@@H]1OC(C)=O)Cc1cc2cc(OC)ccc2nc1-3 [Ysb-3, (20S,20aR)-10-methoxy-20a-acetoxyhomocamptothecin] | 4.7 ± 1.1 |
| CC[C@@]1(O)C(=O)OCc2c1cc1n(c2=O)Cc2cc3ccccc3nc2-1 [CPT, Camptothecin] | 33.8 ± 13.9 |
| CCc1c2c(nc3ccc(O)cc13)-c1cc3c(c(=O)n1C2)COC(=O)[C@H](OC(C)=O)[C@]3(O)CC [Ysb-9, (20S,20aR)-10-hydroxyl-7-ethyl-20a-acetoxy homocamptothecin] | 226 ± 15.8 |
| CCc1c2c(nc3ccc(O)cc13)-c1cc3c(c(=O)n1C2)COC(=O)[C@]3(O)CC [SN-38, reference compound] | 30.4 ± 11.5 |
| CC[C@]1(O)c2cc3n(c(=O)c2COC(=O)[C@@H]1OC(C)=O)Cc1cc2cc4c(cc2nc1-3)OCO4 [Ysb-5] | 1.2 ± 0.7 |
| CC[C@]1(O)c2cc3n(c(=O)c2COC(=O)[C@@H]1O)Cc1cc2cc4c(cc2nc1-3)OCO4 [Ysb-6, (20S,20aR)-9,10-(1,3-dioxolane)-20a-hydroxylhomocamptothecin] | 3.1 ± 1.6 |
